Test results as given in PubChem BioAssay (NCI).
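Method: 48-hour compound exposure of cells in 96-well plates, five concentrations, linear interpolation of endpoints. At the TGI there is no net growth.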

Legend:
Experiment in all cases: NCI-60 cell line screen, 48 h
OVCAR-3 ovarian = tested on: OVCAR-3 ovarian
NCI-H23 lung = tested on: NCI-H23 lung
HCC-2998 colon = tested on: HCC-2998 colon
SK-OV-3 ovarian = tested on: SK-OV-3 ovarian
SR leukemia = tested on: SR leukemia
SF-539 CNS = tested on: SF-539 CNS
MCF7 breast = tested on: MCF7 breast
SNB-75 CNS = tested on: SNB-75 CNS
CCRF-CEM leukemia = tested on: CCRF-CEM leukemia
SN12C renal = tested on: SN12C renal
MALME-3M melanoma = tested on: MALME-3M melanoma
MOLT-4 leukemia = tested on: MOLT-4 leukemia
UACC-62 melanoma = tested on: UACC-62 melanoma
EKVX NSCLC = tested on: EKVX NSCLC
SK-MEL-2 melanoma = tested on: SK-MEL-2 melanoma
UO-31 renal = tested on: UO-31 renal
RXF 393 renal = tested on: RXF 393 renal
NCI-H460 lung = tested on: NCI-H460 lung
SK-MEL-5 melanoma = tested on: SK-MEL-5 melanoma
SK-MEL-28 melanoma = tested on: SK-MEL-28 melanoma

For COc1ccc(-c2c3c(nc4nc(SC)nc(SC)c24)CCCC3)cc1OC, the TGI (OVCAR-3 ovarian) was > 100 µM, the TGI (NCI-H23 lung) was > 100 µM and the TGI (HCC-2998 colon) was > 100 µM. For the same compound, the TGI (SK-OV-3 ovarian) was > 100 µM, the TGI (SR leukemia) was 46.4 µM and the TGI (SF-539 CNS) was > 100 µM. The TGI (MCF7 breast) was > 100 µM, the TGI (SNB-75 CNS) was > 100 µM and the TGI (CCRF-CEM leukemia) was 90.2 µM. For the same compound, the TGI (SN12C renal) was > 100 µM, the TGI (MALME-3M melanoma) was > 100 µM and the TGI (MOLT-4 leukemia) was > 100 µM. The TGI (UACC-62 melanoma) was > 100 µM, the TGI (EKVX NSCLC) was > 100 µM and the TGI (SK-MEL-2 melanoma) was > 100 µM. The TGI (UO-31 renal) was > 100 µM, the TGI (RXF 393 renal) was > 100 µM and the TGI (NCI-H460 lung) was > 100 µM. For the same compound, the TGI (SK-MEL-5 melanoma) was > 100 µM and the TGI (SK-MEL-28 melanoma) was > 100 µM.

CC1OC1C(=O)C1(O)C(C)C(O)C23OC2(C(O)c2c(O)cccc2C3=O)C1O (centres undefined) gave a TGI (OVCAR-3 ovarian) of 0.352 µM, a TGI (NCI-H23 lung) of 0.543 µM and a TGI (HCC-2998 colon) of 0.401 µM. It also gave a TGI (SK-OV-3 ovarian) of 0.532 µM, a TGI (SF-539 CNS) of 0.276 µM and a TGI (MCF7 breast) of 2.01 µM. It also gave a TGI (SNB-75 CNS) of 0.747 µM, a TGI (SN12C renal) of 0.343 µM and a TGI (MALME-3M melanoma) of 0.247 µM. It also gave a TGI (MOLT-4 leukemia) of 0.495 µM, a TGI (UACC-62 melanoma) of 0.646 µM and a TGI (EKVX NSCLC) of 0.541 µM. The TGI (SK-MEL-2 melanoma) was 0.413 µM, the TGI (UO-31 renal) was 0.565 µM and the TGI (RXF 393 renal) was 0.599 µM. For the same compound, the TGI (NCI-H460 lung) was 0.565 µM, the TGI (SK-MEL-5 melanoma) was 0.534 µM and the TGI (SK-MEL-28 melanoma) was 0.682 µM.

With Cc1ccc(Nc2nc(NS(=O)(=O)c3cc(C(=O)Nc4ccc(Cl)cc4)c(Cl)cc3S)n[nH]2)cc1 the TGI (OVCAR-3 ovarian) was > 100 µM, the TGI (NCI-H23 lung) was > 100 µM and the TGI (SK-OV-3 ovarian) was > 100 µM. The TGI (SR leukemia) was > 100 µM, the TGI (SF-539 CNS) was > 100 µM and the TGI (MCF7 breast) was > 100 µM. The TGI (SNB-75 CNS) was > 100 µM, the TGI (CCRF-CEM leukemia) was > 100 µM and the TGI (SN12C renal) was > 100 µM. For the same compound, the TGI (MALME-3M melanoma) was > 100 µM, the TGI (MOLT-4 leukemia) was > 100 µM and the TGI (UACC-62 melanoma) was > 100 µM. The TGI (EKVX NSCLC) was > 100 µM, the TGI (UO-31 renal) was > 100 µM and the TGI (RXF 393 renal) was > 100 µM. The TGI (NCI-H460 lung) was > 100 µM, the TGI (SK-MEL-5 melanoma) was > 100 µM and the TGI (SK-MEL-28 melanoma) was > 100 µM.

In the case of O=C(NN1C(=O)CSC1c1ccc(C(F)(F)F)cc1)c1ccncc1 (centres undefined), the TGI (OVCAR-3 ovarian) is reported as > 100 µM, the TGI (NCI-H23 lung) is reported as > 100 µM and the TGI (HCC-2998 colon) is reported as > 100 µM. For the same compound, the TGI (SK-OV-3 ovarian) was > 100 µM, the TGI (SF-539 CNS) was > 100 µM and the TGI (MCF7 breast) was > 100 µM. For the same compound, the TGI (SNB-75 CNS) was > 100 µM, the TGI (CCRF-CEM leukemia) was > 100 µM and the TGI (SN12C renal) was > 100 µM. The TGI (MALME-3M melanoma) was > 100 µM, the TGI (MOLT-4 leukemia) was > 100 µM and the TGI (UACC-62 melanoma) was > 100 µM. The TGI (EKVX NSCLC) was > 100 µM, the TGI (SK-MEL-2 melanoma) was > 100 µM and the TGI (UO-31 renal) was > 100 µM. The TGI (RXF 393 renal) was > 100 µM, the TGI (NCI-H460 lung) was > 100 µM and the TGI (SK-MEL-5 melanoma) was > 100 µM. For the same compound, the TGI (SK-MEL-28 melanoma) was > 100 µM.

With CN1CCN(c2cc(-c3cc4ccccc4o3)oc(=O)c2C#N)CC1 the TGI (NCI-H23 lung) was > 100 µM, the TGI (HCC-2998 colon) was > 100 µM and the TGI (SR leukemia) was > 100 µM. The TGI (SF-539 CNS) was > 100 µM, the TGI (SNB-75 CNS) was > 100 µM and the TGI (CCRF-CEM leukemia) was > 100 µM. For the same compound, the TGI (SN12C renal) was > 100 µM, the TGI (MALME-3M melanoma) was > 100 µM and the TGI (MOLT-4 leukemia) was > 100 µM. The TGI (EKVX NSCLC) was > 100 µM, the TGI (SK-MEL-2 melanoma) was > 100 µM and the TGI (UO-31 renal) was > 100 µM. For the same compound, the TGI (RXF 393 renal) was > 100 µM, the TGI (NCI-H460 lung) was > 100 µM and the TGI (SK-MEL-5 melanoma) was > 100 µM. The TGI (SK-MEL-28 melanoma) was > 100 µM.

For CC(c1ccccc1)/[N+]([O-])=C/c1ccccc1 (centres undefined), the TGI (OVCAR-3 ovarian) was > 100 µM, the TGI (NCI-H23 lung) was > 100 µM and the TGI (HCC-2998 colon) was > 100 µM. The TGI (SK-OV-3 ovarian) was > 100 µM, the TGI (SF-539 CNS) was > 100 µM and the TGI (SNB-75 CNS) was > 100 µM. The TGI (CCRF-CEM leukemia) was > 100 µM, the TGI (MOLT-4 leukemia) was > 100 µM and the TGI (EKVX NSCLC) was > 100 µM. The TGI (UO-31 renal) was > 100 µM, the TGI (RXF 393 renal) was > 100 µM and the TGI (NCI-H460 lung) was > 100 µM. The TGI (SK-MEL-28 melanoma) was > 100 µM.

With NC(=S)N/N=C1\c2ccccc2CCC1CCC1(O)CCc2ccccc2C1=O (centres undefined) the TGI (OVCAR-3 ovarian) was 36.3 µM, the TGI (NCI-H23 lung) was 87 µM and the TGI (SK-OV-3 ovarian) was > 100 µM. The TGI (SR leukemia) was > 100 µM, the TGI (SF-539 CNS) was 29.5 µM and the TGI (MCF7 breast) was 46.4 µM. For the same compound, the TGI (SNB-75 CNS) was 45 µM, the TGI (CCRF-CEM leukemia) was 86 µM and the TGI (SN12C renal) was 39.8 µM. The TGI (MALME-3M melanoma) was 36.7 µM, the TGI (MOLT-4 leukemia) was 88.2 µM and the TGI (UACC-62 melanoma) was 31.7 µM. For the same compound, the TGI (EKVX NSCLC) was 59.5 µM, the TGI (UO-31 renal) was 29.4 µM and the TGI (RXF 393 renal) was 36.3 µM. It also gave a TGI (NCI-H460 lung) of 32.1 µM, a TGI (SK-MEL-5 melanoma) of 28.3 µM and a TGI (SK-MEL-28 melanoma) of 45.8 µM.

CCc1nnc(-c2nsc3ccccc23)s1 was tested, and the TGI (OVCAR-3 ovarian) was > 100 µM, the TGI (NCI-H23 lung) was > 100 µM and the TGI (HCC-2998 colon) was > 100 µM. The TGI (SR leukemia) was > 100 µM, the TGI (SF-539 CNS) was > 100 µM and the TGI (SNB-75 CNS) was > 100 µM. The TGI (CCRF-CEM leukemia) was > 100 µM, the TGI (SN12C renal) was > 100 µM and the TGI (MOLT-4 leukemia) was > 100 µM. The TGI (UACC-62 melanoma) was > 100 µM, the TGI (EKVX NSCLC) was > 100 µM and the TGI (SK-MEL-2 melanoma) was > 100 µM. The TGI (UO-31 renal) was > 100 µM, the TGI (RXF 393 renal) was > 100 µM and the TGI (NCI-H460 lung) was > 100 µM. For the same compound, the TGI (SK-MEL-5 melanoma) was > 100 µM and the TGI (SK-MEL-28 melanoma) was > 100 µM.

For CCOP(=O)(CN=C(c1ccccc1)c1ccccc1)OCC, the TGI (OVCAR-3 ovarian) was > 100 µM, the TGI (NCI-H23 lung) was > 100 µM and the TGI (HCC-2998 colon) was > 100 µM. For the same compound, the TGI (SK-OV-3 ovarian) was > 100 µM, the TGI (SR leukemia) was > 100 µM and the TGI (MCF7 breast) was > 100 µM. For the same compound, the TGI (SNB-75 CNS) was > 100 µM, the TGI (CCRF-CEM leukemia) was > 100 µM and the TGI (SN12C renal) was > 100 µM. The TGI (MOLT-4 leukemia) was > 100 µM, the TGI (SK-MEL-2 melanoma) was > 100 µM and the TGI (UO-31 renal) was > 100 µM. For the same compound, the TGI (NCI-H460 lung) was > 100 µM, the TGI (SK-MEL-5 melanoma) was > 100 µM and the TGI (SK-MEL-28 melanoma) was > 100 µM.
